# Values joined by “and” are separate entries in the source; they are usually repeats but may differ in a detail not shown here. Equal entries are not always repeated. Inconclusive results and toxic doses are left out. Peptide text beside a SMILES is read from it. * marks the point of attachment. ONp = O=[N+]([O-])c1ccc(O*)cc1; Cbz = O=C(OCc1ccccc1)*
# Tested on: L1210 leukemia ip in BDF1 mice, survival T/C
# Assay: NCI In Vivo Anticancer Drug Screen. Data for tumor model L1210 Leukemia (intraperitoneal) in B6D2F1 (BDF1) mice
# Conditions: endpoint: mean survival time, higher = longer survival
# Method in brief: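 Value reflects the ratio of survival in compound-treated mice to survival in vehicle-treated controls, with both groups carrying the same transplanted tumor.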
# [1] = dose: 5.0 mg/kg/injection, schedule: Q01DX001 (ip), vehicle: saline
# [2] = dose: 10.0 mg/kg/injection, schedule: Q01DX001 (ip), vehicle: saline
# [3] = dose: 20.0 mg/kg/injection, schedule: Q01DX001 (ip), vehicle: saline
# [4] = dose: 40.0 mg/kg/injection, schedule: Q01DX001 (ip), vehicle: saline
# [5] = dose: 25.0 mg/kg/injection, schedule: Q04DX002 (ip), vehicle: Klucel (hydroxypropylcellulose) (HPC)
# [6] = dose: 50.0 mg/kg/injection, schedule: Q04DX002 (ip), vehicle: Klucel (hydroxypropylcellulose) (HPC)
# [7] = dose: 100.0 mg/kg/injection, schedule: Q04DX002 (ip), vehicle: Klucel (hydroxypropylcellulose) (HPC)
# [8] = dose: 100.0 mg/kg/injection, schedule: Q01DX009 (ip), vehicle: Klucel (hydroxypropylcellulose) (HPC)
# [9] = dose: 100.0 mg/kg/injection, schedule: Q04DX003 (ip), vehicle: Klucel (hydroxypropylcellulose) (HPC)
# [10] = dose: 200.0 mg/kg/injection, schedule: Q01DX009 (ip), vehicle: Klucel (hydroxypropylcellulose) (HPC)
# [11] = dose: 200.0 mg/kg/injection, schedule: Q04DX002 (ip), vehicle: Klucel (hydroxypropylcellulose) (HPC)
# [12] = dose: 200.0 mg/kg/injection, schedule: Q04DX003 (ip), vehicle: Klucel (hydroxypropylcellulose) (HPC)
# [13] = dose: 400.0 mg/kg/injection, schedule: Q01DX009 (ip), vehicle: Klucel (hydroxypropylcellulose) (HPC)
# [14] = dose: 400.0 mg/kg/injection, schedule: Q04DX002 (ip), vehicle: Klucel (hydroxypropylcellulose) (HPC)
# [15] = dose: 400.0 mg/kg/injection, schedule: Q04DX003 (ip), vehicle: Klucel (hydroxypropylcellulose) (HPC)
# [16] = dose: 100.0 mg/kg/injection, schedule: Q01DX009 (ip), vehicle: saline with Tween-80
# [17] = dose: 100.0 mg/kg/injection, schedule: Q04DX003 (ip), vehicle: saline with Tween-80
# [18] = dose: 200.0 mg/kg/injection, schedule: Q01DX009 (ip), vehicle: saline with Tween-80
# [19] = dose: 200.0 mg/kg/injection, schedule: Q04DX003 (ip), vehicle: saline with Tween-80
# [20] = dose: 400.0 mg/kg/injection, schedule: Q04DX003 (ip), vehicle: saline with Tween-80
smiles,measurement,setting,value
Cc1nc(N)[nH]c(=O)c1CCCNCc1ccccn1,T/C,"dose: 25.0 mg/kg/injection, schedule: Q01DX001 (ip), vehicle: saline with Tween-80",101 % of control
same,T/C,"dose: 50.0 mg/kg/injection, schedule: Q01DX001 (ip), vehicle: saline with Tween-80",98 % of control
same,T/C,"dose: 100.0 mg/kg/injection, schedule: Q01DX001 (ip), vehicle: saline with Tween-80",93 % of control
COc1ccc2nc3ccccc3c(NCCNCCO)c2c1,T/C,[1],97 % of control
same,T/C,"dose: 6.0 mg/kg/injection, schedule: Q01DX Z (ip), vehicle: carboxymethylcellulose (CMC)",98 % of control
same,T/C,"dose: 9.0 mg/kg/injection, schedule: Q01DX Z (ip), vehicle: carboxymethylcellulose (CMC)",92 % of control
same,T/C,[2],106 % of control
same,T/C,[3],101 % of control
same,T/C,[4],97 % of control
same,T/C,"dose: 80.0 mg/kg/injection, schedule: Q01DX001 (ip), vehicle: saline",92 % of control
Cc1cnc(NN)nc1-c1ccccc1O,T/C,[5],95 % of control
same,T/C,[6],97 % of control
same,T/C,[7],105 % of control and 110 % of control
CCN(CC)P(=O)(OCC(C)C(C)=O)N(CCCl)CCCl (configuration not stated),T/C,"dose: 100.0 mg/kg/injection, schedule: Q04DX003 (ip), vehicle: DMSO",115 % of control
same,T/C,"dose: 200.0 mg/kg/injection, schedule: Q04DX003 (ip), vehicle: DMSO",113 % of control
same,T/C,"dose: 400.0 mg/kg/injection, schedule: Q04DX003 (ip), vehicle: DMSO",112 % of control
O=[N+]([O-])c1cccn2nc(-c3ccccc3)nc12,T/C,"dose: 100.0 mg/kg/injection, schedule: Q01DX001 (ip), vehicle: acetone",98 % of control
same,T/C,"dose: 200.0 mg/kg/injection, schedule: Q01DX001 (ip), vehicle: acetone",98 % of control
same,T/C,"dose: 400.0 mg/kg/injection, schedule: Q01DX001 (ip), vehicle: acetone",101 % of control
O=C1CCOP(=O)(NCCCl)N1CCCl (configuration not stated),T/C,"dose: 100.0 mg/kg/injection, schedule: Q04DX002 (ip), vehicle: saline",115 % of control
same,T/C,"dose: 400.0 mg/kg/injection, schedule: Q04DX002 (ip), vehicle: saline",175 % of control
Cc1ccc(C[P+](c2ccccc2)(c2ccccc2)c2ccccc2)cc1,T/C,"dose: 2.0 mg/kg/injection, schedule: Q01DX015 (ip), vehicle: saline",97 % of control
same,T/C,"dose: 4.0 mg/kg/injection, schedule: Q01DX015 (ip), vehicle: saline",100 % of control
same,T/C,[1],102 % of control
same,T/C,"dose: 8.0 mg/kg/injection, schedule: Q01DX015 (ip), vehicle: saline",100 % of control
same,T/C,[2],104 % of control
same,T/C,[3],93 % of control
same,T/C,[4],96 % of control
Cn1cnc([N+](=O)[O-])c1[Se]c1nc(N)nc2nc[nH]c12,T/C,"dose: 25.0 mg/kg/injection, schedule: Q01DX005 (ip), vehicle: other",159 % of control
same,T/C,"dose: 50.0 mg/kg/injection, schedule: Q01DX005 (ip), vehicle: other",92 % of control
O=C(Nc1ccccc1C(=O)N/N=C/c1c(O)ccc2ccccc12)c1ccccc1Cl,T/C,"dose: 100.0 mg/kg/injection, schedule: Q01DX001 (ip), vehicle: Klucel (hydroxypropylcellulose) (HPC)",95 % of control
same,T/C,[8],99 % of control and 103 % of control
same,T/C,[7],95 % of control and 104 % of control
same,T/C,[9],100 % of control
same,T/C,"dose: 200.0 mg/kg/injection, schedule: Q01DX001 (ip), vehicle: Klucel (hydroxypropylcellulose) (HPC)",93 % of control
same,T/C,[10],101 % of control and 102 % of control
same,T/C,[11],103 % of control
same,T/C,[12],96 % of control
same,T/C,"dose: 400.0 mg/kg/injection, schedule: Q01DX001 (ip), vehicle: Klucel (hydroxypropylcellulose) (HPC)",95 % of control
same,T/C,[13],94 % of control and 95 % of control
same,T/C,[14],93 % of control and 92 % of control
same,T/C,[15],96 % of control
Nc1nc(SCc2ccc([N+](=O)[O-])cc2)c2nc(SCc3ccc([N+](=O)[O-])cc3)n(C3OC(CO)C(O)C3O)c2n1 (configuration not stated),T/C,"dose: 50.0 mg/kg/injection, schedule: Q01DX005 (ip), vehicle: saline",102 % of control
same,T/C,"dose: 100.0 mg/kg/injection, schedule: Q01DX005 (ip), vehicle: saline",118 % of control
same,T/C,"dose: 200.0 mg/kg/injection, schedule: Q01DX005 (ip), vehicle: saline",115 % of control
COc1ccc(C(=O)c2cnc(C)n2Cc2ccccc2)cc1,T/C,[8],106 % of control
same,T/C,[10],106 % of control
same,T/C,[13],114 % of control
C#CCSC(=N)N,T/C,"dose: 25.0 mg/kg/injection, schedule: Q01DX009 (ip), vehicle: saline",101 % of control
same,T/C,"dose: 50.0 mg/kg/injection, schedule: Q01DX009 (ip), vehicle: saline",93 % of control
same,T/C,"dose: 100.0 mg/kg/injection, schedule: Q04DX003 (ip), vehicle: saline",103 % of control
COc1cc(C=C(C#N)C#N)cc(I)c1O,T/C,"dose: 25.0 mg/kg/injection, schedule: Q04DX003 (ip), vehicle: Klucel (hydroxypropylcellulose) (HPC)",98 % of control
same,T/C,"dose: 50.0 mg/kg/injection, schedule: Q04DX003 (ip), vehicle: Klucel (hydroxypropylcellulose) (HPC)",104 % of control
O=C(OCS(=O)c1ccccc1)c1ccccc1 (configuration not stated),T/C,[9],94 % of control
same,T/C,[12],104 % of control
NC1=CC(=O)CCC1,T/C,"dose: 100.0 mg/kg/injection, schedule: Q01DX001 (ip), vehicle: saline",103 % of control
same,T/C,"dose: 200.0 mg/kg/injection, schedule: Q01DX001 (ip), vehicle: saline",100 % of control
same,T/C,"dose: 400.0 mg/kg/injection, schedule: Q01DX001 (ip), vehicle: saline",97 % of control
CCCCCCCCCCCCCCCCC(=O)CC,T/C,[9],96 % of control
same,T/C,[12],91 % of control
same,T/C,[15],92 % of control
NC(=O)c1nccnc1Cl,T/C,[16],91 % of control
same,T/C,[17],100 % of control
same,T/C,[18],98 % of control
same,T/C,[19],97 % of control
same,T/C,[20],110 % of control
C1C[S+]2CCN1CC2,T/C,"dose: 50.0 mg/kg/injection, schedule: Q01DX001 (ip), vehicle: saline",95 % of control
NNC(=O)CC(NN)c1ccccc1O (configuration not stated),T/C,"dose: 100.0 mg/kg/injection, schedule: Q04DX002 (ip), vehicle: saline with Tween-80",90 % of control
same,T/C,"dose: 200.0 mg/kg/injection, schedule: Q04DX002 (ip), vehicle: saline with Tween-80",100 % of control
same,T/C,"dose: 400.0 mg/kg/injection, schedule: Q04DX002 (ip), vehicle: saline with Tween-80",102 % of control
CC(=O)OC1CCC2(C)C(CCC3C2CCC2(C)C3C(c3ccccc3Cl)C3C=NN(c4ccccc4)C32C(=O)c2ccccc2)C1 (configuration not stated),T/C,[5],97 % of control
same,T/C,[6],94 % of control
same,T/C,[7],94 % of control
O=C(O)c1cc(C(=O)c2ccccn2)c2cccc(C(F)(F)F)c2n1,T/C,"dose: 50.0 mg/kg/injection, schedule: Q01DX009 (ip), vehicle: Klucel (hydroxypropylcellulose) (HPC)",98 % of control
same,T/C,[8],95 % of control
same,T/C,[9],97 % of control
same,T/C,[10],93 % of control
same,T/C,[12],97 % of control
Nc1nc(N)c(CCCCc2ccccc2)c(/C=C/c2ccc([N+](=O)[O-])cc2)n1,T/C,"dose: 100.0 mg/kg/injection, schedule: Q01DX001 (ip), vehicle: gum acacia",92 % of control
same,T/C,"dose: 200.0 mg/kg/injection, schedule: Q01DX001 (ip), vehicle: gum acacia",94 % of control
same,T/C,"dose: 400.0 mg/kg/injection, schedule: Q01DX001 (ip), vehicle: gum acacia",95 % of control
CCOC(=O)c1ccc(NC(=O)N(CCCl)N=O)cc1,T/C,"dose: 9.0 mg/kg/injection, schedule: Q01DX001 (ip), vehicle: carboxymethylcellulose (CMC)",215 % of control
same,T/C,"dose: 18.7 mg/kg/injection, schedule: Q01DX001 (ip), vehicle: carboxymethylcellulose (CMC)",157 % of control
O=C(CNC(=O)OCc1ccccc1)NCC(=O)Oc1ccc([N+](=O)[O-])cc1 (Cbz-Gly-Gly-ONp),T/C,[16],108 % of control
same,T/C,[17],92 % of control
same,T/C,[18],105 % of control
same,T/C,[19],94 % of control
same,T/C,"dose: 400.0 mg/kg/injection, schedule: Q01DX009 (ip), vehicle: saline with Tween-80",100 % of control
same,T/C,[20],92 % of control
O=c1ssc(Nc2ccccc2)c1Cl,T/C,[7],93 % of control
same,T/C,[11],100 % of control
same,T/C,[14],104 % of control

# From PubChem BioAssay AID248 (DTP/NCI, 2004)
